The record followed here is PMC12299847, “Macroalgae-Inspired Brominated Chalcones as Cosmetic Ingredients with the Potential to Target Skin Inflammaging” (Marine Drugs, 2025).

One assay relates to HaCaT keratinocytes. As to the kind of experiment: Resazurin cell viability assay in HaCaT keratinocytes. The format is cell-based, human. The settings on record: HaCaT, 24 h, significant effects only at 62.5 μM and 125 μM. Here is the method: To evaluate the effects of chalcones 1–7 on cell viability after 24 h, a resazurin assay was performed using two cell lines: human HaCaT keratinocytes (HaCaT, CLS 300493), representing the epidermal layer, and murine RAW 264.7 macrophages (RAW 264.7, ATCC TIB-71), which model immune cells involved in dermal inflammatory responses. For the keratinocyte cell line, all seven brominated and non-brominated chalcones were tested across a concentration range from 2.5 μM to 125 μM (Figure 2).
Human keratinocytes (HaCaT, CLS 300493, Eppelheim, Germany) were cultured in DMEM supplemented with heat-inactivated FBS, and a penicillin and streptomycin antibiotic solution. The cell culture of keratinocytes was washed with 6 mL of phosphate buffer solution with 0.05% EDTA (Sigma-Aldrich, St. Louis, MO, USA) and detached using 3 mL of 0.05% trypsin + 0.02% EDTA in PBS solution when the cells reached 70–80% confluence in cell culture flasks. DMEM was also used to cultivate the mouse macrophage cell line (RAW 264.7, ATCC TIB-71, Manassas, VA, USA) together with 10% (v/v) non-inactivated FBS, 1.5 g/L sodium bicarbonate, and 100 U/mL penicillin and 100 μg/mL streptomycin stock (antibiotic solution). The macrophage culture was mechanically detached using a cell scraper, and the final amount of DMEM media with the cells was sub-cultured in a 1:10 ratio to the cellular suspension.
The resazurin reduction assay was employed to evaluate the metabolic activity of human epidermal keratinocyte (HaCaT) and murine macrophage (RAW264.7) cell lines, as outlined in a previous study. In brief, HaCaT cells (1.0 × 10^5 cells/mL) and RAW264.7 cells (5.0 × 10^4 cells/mL) were seeded in 96-well plates (200 μL/well) and incubated overnight at 37 °C to allow for cell attachment. Following this, the cells were treated with different concentrations of the test compounds and kept at 37 °C for 24 h. After 20 h, resazurin (500 μM in sterile phosphate buffer solution, pH 7.4) was added to each well to achieve a final concentration of 50 μM, followed by an additional incubation of 4 h. Absorbance was then measured at wavelengths of 570 and 620 nm using a SpectraMax Plus 384 absorbance microplate spectrophotometer (Molecular Devices, San Jose, CA, USA). Each experiment was conducted in triplicate, with a minimum of three independent assays. The results were graphically presented as the percentage of cell viability versus chemical concentration, relative to the control.
Figure 2 Cytotoxicity of chalcones 1–7 using a resazurin reduction assay in HaCaT cells by comparison with the control. Bar graphs represent the mean ± SEM of at least three independent experiments performed in triplicate. Statistical analysis: one ANOVA with Dunnett’s multiple comparisons test, where p < 0.05 was considered significant when compared to the control condition. * p < 0.05, ** p < 0.01, and *** p < 0.0005.
On the technique in general: The colour change of resazurin is a common sign of viable cells or microbes.

The nature of assay [1]: NO scavenging potential (SNAP assay). The settings on record: SNAP 300 μM, 3 h; compounds 100 μM (methods) or 7.5 μM (Figure 5). It counts as biochemical. How it is done:
The SNAP (S-nitroso-N-acetylpenicillamine) assay is a well-established method for assessing the NO scavenging capacity of compounds, offering valuable insights into their potential direct antioxidant and anti-inflammatory properties. In this study, chalcones 1–7 were tested for their ability to capture NO radicals induced by the presence of SNAP at a concentration of 300 μM (Figure 5). […] Instead, these compounds could potentially exert their effects via alternative mechanisms, such as the modulation of iNOS activity or by targeting upstream targets in the inflammatory cascade, such as by the suppression of NF-κB activation, and/or Nrf2 activation, which will deplete co-activators from the iNOS enzyme, thereby reducing iNOS transcription and, consequently, iNOS protein levels and NO production.
The ability to scavenge NO was assessed using S-nitroso-N-acetyl-D/L-penicillamine (SNAP) as a source of NO. The production of NO was quantified using the Griess reaction, following a previously described method. […] Absorbance at 550 nm was then measured using a Biotek Synergy HT plate reader (Biotek, CA, USA). The nitrite concentration in the supernatants was determined by comparing the absorbance of each sample to a sodium nitrite standard curve. […]

Molecules are shown by their SMILES. Where only a bound is given, the exact number is not on record here.

`COc1cc(Br)c(/C=C/C(=O)c2cc(OC)c(OC)cc2Br)cc1OC` [Chalcone 1]: in the assay on HaCaT keratinocytes, the “maximal reduction in viability” value was not above 25%. In assay [1], the NO scavenging activity entry was “No direct NO scavenging action”.
